Assay results reported in US20210023089A1, “Compositions Useful for Treating Herpes Simplex Keratitis, and Methods Using Same” (priority 2013, published 2021).

Columns and labels:
HSV-1 [1] = assay: qRT-PCR of viral transcripts in HSV-1 infected hTCEpi cells; type: cell-based, HSV-1 (KOS strain); settings: MOI 0.1, 10 μM, 16 hpi
Procedure: The following strains of HSV-1 were used: KOS, ICPO-null, HFEM, and tsB7. Subconfluent monolayers of cells were grown in six-well plates. Drug treatments were administered 45 minutes prior to infection and continued for the entire duration of each experiment. Unless indicated otherwise, KU-55933 (Batch No. 5, 99.7% purity; Tocris Bioscience, Bristol, UK) was used at 10 μM final concentration, phosphonoacetic acid (PAA) at 400 μg/mL (Sigma-Aldrich, St. Louis, Mo.), and acyclovir at 50 μg/mL (Sigma-Aldrich). KU-55933 was dissolved in dimethyl sulfoxide (DMSO), and the final concentration of DMSO in both KU-55933 and mock treatment in the in vitro and the ex vivo experiments was 0.1%.
Viral genome replication and transcription were measured by quantitative PCR (qPCR). Total DNA and RNA from infected cells were isolated using the DNeasy Blood & Tissue Kit and the RNeasy Mini Kit, respectively (QIAGEN, Hilden, Germany). RNA was converted to cDNA using qScript (Quanta BioSciences, Gaithersburg, Md.). Real-time qPCR was performed with SYBR Green (Bio-Rad, Hercules, Calif.). […] Transcription of the three gene families was measured with primers for RL2 (ICPO), UL30 (DNA polymerase catalytic subunit), and UL44 (gC), with reference primers for the 18S ribosomal RNA (rRNA).

McKrae strain HSV-1 = assay: Mouse model of ocular HSV-1 keratitis, disease scoring; type: in vivo, C57BL/6J mice; settings: 200 μM topical
Procedure: Four-week-old female C57BL/6J mice were anesthetized with isoflurane, and their left eyes were scarified in a 4×4 crosshatch pattern with a 28-gauge needle. […] strain HSV-1 was applied in 1 μL inoculum volume at 8×10^5 PFU/eye and the eyelid gently massaged. The infection was allowed to develop for 24 hours, at which point treatments were initiated. KU-55933 was delivered to the corneas dissolved in PBS to a concentration of 200 μM. Control treatments constituted an equivalent amount of DMSO (0.2% vol/vol) in PBS drops. Treatments were administered every 4 hours for 1 full day and then every 8 hours for the remainder of the experiment. Ocular disease severity was assessed at every 24-hour period postinfection. Two disease parameters were scored based on a number scale (Jose et al., 2013, Invest Ophthalmol Vis Sci 54:1070-1079). Briefly, stromal keratitis was scored as 1+, cloudiness, some iris detail visible; 2+, iris detail obscured; 3+, cornea totally opaque; and 4+, corneal perforation. Blepharitis was scored as 1+, puffy eyelids; 2+, puffy eyelids with some crusting; 3+, eye swollen shut with severe crusting; and 4+, eye completely swollen shut and crusted over.

human corneas = type: cell-based
Procedure: Human corneas were obtained from the Lions Eye Bank of Delaware Valley. Rabbit corneas were excised from intact fresh eyeballs of young (8-12 weeks) albino rabbits (Pel-Freez Biologicals, Rogers, Ark.). Protocol (Alekseev et al., 2012, J Vis Exp 69:e3631) for ex vivo corneal culture, infection, and treatment was followed closely. Briefly, corneoscleral buttons were excised and rinsed in PBS containing 200 U/mL penicillin and 200 μg/mL streptomycin. The endothelial concavity was filled with culture medium containing 1% low melting temperature agarose. The corneas were cultured epithelial side up in MEM medium supplemented with nonessential amino acids (1×), 2 mM […], 200 U/mL penicillin, and 200 μg/mL streptomycin. The next day, they were infected with 1×10^4 plaque forming units (PFU)/cornea of strain KOS HSV-1 for 1 hour, rinsed, and overlaid with fresh medium. Drug treatments were administered at the same concentrations as for cultured cells. For KU-55933 bioavailability assessment, corneas were treated with bleomycin (200 μg/mL) for 1 hour. The epithelial cell layer was collected by scraping to isolate DNA or protein. […] Treatment toxicity was assessed by briefly staining the cornea with fluorescein (1% wt/vol in PBS) and imaging the epithelial defects with 464-nm wavelength blue light (LDP LLC, Carlstadt, N.J.).

HSV-1 [2] = assay: HSV-1 replication (relative genome level) in normal and cancer cell lines; type: cell-based; settings: KU-55933 10 μM
Procedure: All cells were cultured at 37° C. and 5% CO2, and supplemented with 100 U/ml penicillin and 100 μg/ml streptomycin. hTCEpi human corneal epithelial cells were cultured in KGM-2 (Lonza, Basel, Switzerland). HCE human corneal epithelial cells were cultured in DMEM/F-12 supplemented with 10% FBS. EPC2 human esophageal epithelial cells were cultured in KSFM (Carlsbad, Calif.). OKF6 human oral epithelial cells were cultured in KSFM. E5 cells, which are CV-1 cells stably expressing HSV-1 ICP4 protein, were cultured in DMEM supplemented with 10% FBS. HEK293 human embryonic kidney epithelial cells, HeLa human cervical adenocarcinoma cells, U2OS human osteosarcoma cells, H1299 human lung carcinoma cells, and SH-SY5Y human neuroblastoma cells were all obtained from American Type Culture Collection and cultured in DMEM supplemented with 10% FBS.
Total DNA was isolated from infected cells using the DNeasy Blood & Tissue Kit (QIAGEN, Hilden, Germany). Real time quantitative PCR was performed with SYBR Green (Bio-Rad, Hercules, Calif.). Target primers for UL30 (DNA polymerase catalytic subunit) and reference primers for GAPDH were used to measure genome replication. Primer sequences were provided in Alekseev et al., 2014, Invest. Ophthalm. Vis. Sci. 55:706-715). Real time PCR data were processed using the ΔΔC(t) method. […]

SMILES: O=c1cc(-c2cccc3c2Sc2ccccc2S3)oc(N2CCOCC2)c1 [KU-55933, 2-(morpholin-4-yl)-6-(thianthren-1-yl)-pyran-4-one]
- levels of viral transcripts (ICP0, DNA polymerase, glycoprotein C) (HSV-1 [1]): reduced
- difference in blepharitis score versus control group (McKrae strain HSV-1): not statistically significant
- stromal disease severity (stromal keratitis score) (McKrae strain HSV-1; started 24 hpi, every 4 hours for 1 day then every 8 hours): notable and statistically significant reduction
- stromal keratitis state by day 5 postinfection, on average (McKrae strain HSV-1; all control mice developed corneal perforation): only corneal opacity
- surface defects of explanted human corneas (human corneas): did not develop any surface defects
- HSV-1 replication in transformed or cancer cell lines (HSV-1 [2]; HeLa, U2OS, H1299, SH-SY5Y): little effect
- HSV-1 replication in normal cell types (HSV-1 [2]; hTCEpi, HCE, OKF6, EPC2): potently suppressed
